These results are taken from patent US5864033A, “Adenosine kinase inhibitors” (priority 1995, dated 1999).

Values joined by “and” are separate entries in the source; they are usually repeats but may differ in a detail not shown here. Identical values can stand only once. “Also recorded” adds a separate entry of the source.

For data set [1], the system named is neutrophil adherence to endothelial cells. Description: Inhibition of neutrophil adherence to endothelial cells. The following applies: for inhibition of neutrophil adhesion to endothelial cells: fMLP-stimulated human neutrophils, 2 hours, 37° C.; for reversal of inhibition of neutrophil adhesion by adenosine deaminase: with adenosine deaminase 0.125 U/ml. The data set is classed as cell-based, human. As for the experimental part:
The ability of an adenosine kinase inhibitor to affect neutrophil adherence to fibroblasts and endothelial cells was evaluated in a cell culture model.
These incubations were carried out in the presence of fMLP-stimulated human neutrophils isolated from whole blood (1.25×10^6 /ml) with or without adenosine deaminase (0.125 U/ml). At the end of the incubation, the medium was removed and the monolayers of fibroblasts or endothelial cells and adherent neutrophils were fixed by addition of formaldehyde (3.7%) and, after washing to remove non-adherent neutrophils, adherent neutrophils were stained with Weigart's hematoxylin and counted under a light microscope.

In the next data set the test system is rat cardiomyocytes. Conditions: cited from earlier work.
Data set [2] relates to pentylenetetrazol (PTZ)-induced seizures in mice. Description: PTZ-induced seizures. The data set is classed as in vivo, male Swiss Webster mice. Conditions: for attenuation of chemical and electroshock induced seizures: experimental animal models; for Percent Seizure: 45 min prior to PTZ, N = 7; for Seizure Score: mean ± standard deviation; for oral anticonvulsant activity: 45 minutes prior to PTZ.

In another data set the test system is cardiac adenosine kinase. Conditions: systemic or, in some cases, oral administration.
Data set [3] concerns isolated guinea pig hearts. The following applies: absence of ADA inhibition; cited from earlier work.
Data set [4] has as its system isolated guinea pig hearts. Description: Improved functional recovery in isolated hearts (low flow ischemia/reperfusion). The following applies: for Preischemic Flow: Conc. 0.3 (M) as printed; for Functional Recovery: Conc. 0.3 as printed, p < 0.05 vs. Control. The protocol: The ability of a number of adenosine kinase inhibitors to improve the recovery of post-ischemic function was examined in an isolated guinea pig heart model.
Isolated guinea pig hearts were cannulated via the ascending aorta and-attached to a perfusion apparatus according to the method of Langendorff. The hearts were perfused at a constant pressure of 60 cm of H2 O with a modified Krebs-Hanseleit buffer (pH 7.4) at 37° C. Left ventricular developed pressures (LVDP) were monitored continuously using a latex balloon attached to a pressure transducer. Coronary flows were measured gravimetrically by timed collection of pulmonary effluent. Following equilibration of the hearts for a period of 30 minutes, the hearts were subjected to 45 minutes of low flow ischemia, by reducing the perfusion pressure to 10 cm of H2 O, and then reperfused for 30 minutes by restoring the pressure to its original level (60 cm of H2 O). The adenosine kinase inhibitors BP-1-238, GP-1-515 and GP1-547 were added to the perfusion buffer at the final concentrations specified.

Data set [5] deals with isolated guinea pig ileum longitudinal muscle. Description: Inhibition of contraction in isolated ileum. The following applies: for inhibition of contraction in the isolated ileum: electrically stimulated; for reversal of inhibition of contraction: with 8-sulfophenyltheophylline (8SPT) or adenosine deaminase (ADA). The protocol: The ability of adenosine kinase inhibition to affect stimulated contraction of muscle strips from the isolated ileum has been investigated.
Parallel platinum electrodes were used to deliver electrical current at 1 minute intervals at a voltage adequate to induce contraction of 90% of maximal. The adenosine kinase inhibitors, GP-1-515 or GP-1-547 were added to the tissue baths at different concentrations, with or without either the adenosine receptor antagonist, 8-sulphophenyltheophylline (8SPT) or adenosine deaminase (ADA), and the effects on contraction monitored.

For another data set, the system named is isolated rat hearts. The following applies: normoxic, hypoxic, anoxic or ischemic conditions; alone; cited from earlier work.
In another data set the test system is dog hearts. Conditions: cited from earlier work.
Another data set deals with mice. Conditions: cited from earlier work.
A further data set has as its system anesthetized male dogs. The data set is described as follows: Preclinical model of stable angina (repeated pacing-induced ischemia). Conditions: intravenous infusion. The data set is classed as in vivo, dog. As for the experimental part:
GP-1-515, was evaluated for its ability to prevent cumulative cardiac dysfunction associated with repeated episodes of pacing-induced ischemia.
Anesthetized male dogs were instrumented to measure regional myocardial wall thickening during right atrial pacing (Young & Mullane, Am. J. Physio., 1991, 261:1570-1577). Animals were subjected to six repeated episodes of pacing. A continuous IV infusion of 1 μg/kg/min of GP-1-515 or saline (control) was administered post pace #1.

In data set [6] the test system is canine coronary thrombosis / cyclic flow reductions. The data set is described as follows: Canine model of platelet-induced coronary thrombosis (Folts; cyclic flow reductions). The data set is classed as in vivo, dog. As for the experimental part:
GP-1-515 was tested in a canine model of platelet-induced coronary thrombosis (Folts, J., Circulation, 1991, 83[Suppl. IV]:IV-3-IV-14). In this model, platelets cyclically aggregate and embolize causing cyclic flow reductions (CFRs) that are quantitated by the frequency and the change in coronary blood flow from low point to peak with each cycle.

Take `CNc1ncnc2c1ncn2[C@@H]1O[C@H](CN)[C@@H](O)[C@H]1O` [GP-1-272]: in [1], the “inhibition of neutrophil adhesion to endothelial cells” value is recorded as “inhibit neutrophil adhesion to endothelial cells; also recorded: dose-dependent inhibition” and the “reversal of inhibition of neutrophil adhesion by adenosine deaminase” value is reported as “reversed by adenosine deaminase treatment; also recorded: reversal of these inhibitions”.
For `OC[C@H]1O[C@@H](n2cnc3c2N=CNC[C@H]3O)C[C@@H]1O` [2'-deoxycoformycin], the “effect on adenosine release” value with rat cardiomyocytes (inhibition of adenosine deaminase alone) is “no effect on adenosine release”.
With `C[C@H]1O[C@@H](n2nc(I)c3cncnc32)[C@H](O)[C@@H]1O` [GP-1-560, 3-iodo-1-(5'-deoxy-B-D-ribofuranosyl)pyrazolo[3,4-d]pyrimidine], in data set [2], the “attenuation of chemical and electroshock induced seizures” value is on record as “potent effects”; the oral anticonvulsant activity result is reported as “exhibit oral anticonvulsant activity”. Besides, in data set [2] (oral 30 mg/kg), the “Latency To First Seizure” value was found to be 4.5 min, the “Percent Seizure” value came to 71% and the “Seizure Score” value was 0.71 ± 0.5. Moreover, in data set [2] (oral 50 mg/kg), the “Percent Seizure” value is 43% and the “Seizure Score” value came out at 1.0 ± 0.9. In addition, the “Latency To First Seizure” value in [2] (oral 50 mg/kg, p < 0.05 vs. Control) was 7.0 min.
On to `NC[C@H]1O[C@@H](n2cnc3c(N)ncnc32)[C@H](O)[C@@H]1O` [GP-1-238, 5'-amino-5'-deoxyadenosine], for which, in the data set with cardiac adenosine kinase, the “inhibition of cardiac adenosine kinase in vivo” value was “completely inhibited adenosine kinase in vivo”. In the data set with rat cardiomyocytes (together with ADA inhibition), the “increase in adenosine release” value is listed as 6 fold. In data set [3], the “increase of adenosine release without ADA inhibition” value is reported as “not apparent in the absence of ADA inhibition”.
`NC[C@H]1O[C@@H](n2nc(I)c3c(N)ncnc32)[C@H](O)[C@@H]1O` [GP-1-547]: in data set [4], the “Preischemic Flow” value was 6.2 ± 0.3 mL/min/g and the “Functional Recovery” value amounted to 79.0 ± 3.1 % preischemic LVDP. Further, in data set [5], the “inhibition of contraction in the isolated ileum” value was “Inhibition of contraction; also recorded: attenuate contraction; also recorded: dose-dependent inhibition”; the “reversal of inhibition of contraction” value is “reversal by both 8SPT and ADA; also recorded: reversal of these inhibitions”.
In the case of `Nc1ncnc2c1c(I)cn2[C@@H]1O[C@H](CO)[C@@H](O)[C@H]1O` [5-iodotubercidin], the perfusate adenosine concentration result in the data set with isolated rat hearts was “no increase in perfusate adenosine concentration”. For the same compound, in the data set on dog hearts, the “effect in ischemia and reperfusion” value is listed as “inconsistent effects”. In the data set with mice, the “flaccidity and locomotor activity” value is “pronounced general flaccidity and much-reduced spontaneous locomotor activity”; the hypothermia result is reported as “cause hypothermia”.
Take `C[C@H]1O[C@@H](n2cc(I)c3c(N)ncnc32)[C@H](O)[C@@H]1O` [GP-1-456, 5'-deoxy-5-iodotubercidin, reference compound]: in data set [1], the “inhibition of neutrophil adhesion to endothelial cells” value is listed as “inhibit neutrophil adhesion to endothelial cells; also recorded: dose-dependent inhibition” and the “reversal of inhibition of neutrophil adhesion by adenosine deaminase” value is listed as “reversed by adenosine deaminase treatment; also recorded: reversal of these inhibitions”. Further, the “inhibition of PTZ induced seizures” value in [2] (IP 1, 5 and 10 mg/kg) is recorded as “dose-dependent inhibition”. In addition, the “reversal of inhibition of PTZ induced seizures” value in [2] (IP […] with theophylline 34 mg/kg or 8-sulfophenyltheophylline 70 mg/kg) is on record as “reversal of this inhibition by the central adenosine receptor antagonist theophylline but not the peripheral antagonist 8-sulfophenyltheophylline”. Moreover, in data set [2], the “attenuation of chemical and electroshock induced seizures” value is on record as “potent effects”; the oral anticonvulsant activity result is given as “exhibit oral anticonvulsant activity”. In the data set with mice, the “flaccidity and locomotor activity” value was “pronounced general flaccidity and much-reduced spontaneous locomotor activity”; the hypothermia entry is given as “cause hypothermia”.
Regarding `NC[C@H]1O[C@@H](n2nc(Br)c3c(N)ncnc32)[C@H](O)[C@@H]1O` [GP-1-515], in data set [4], the “Preischemic Flow” value was determined as 6.5 ± 0.3 mL/min/g and the “Functional Recovery” value was 79.0 ± 3.4 % preischemic LVDP. For the same compound, in the data set on anesthetized male dogs, the “decline in function / wall thickening with pacing-induced ischemia” value is “attenuates the decline in wall thickening; also recorded: attenuated the decline in function”. The “animals in which CFRs were abolished” value in data set [6] (Folts model, dogs) was 3 of 8 and 3 out of 8. Further, the “frequency and change in flow of CFRs where not abolished” value in [6] (dog, in vivo) was “reduced both the frequency and the change in flow”. Also, in data set [5], the “inhibition of contraction in the isolated ileum” value was “Inhibition of contraction; also recorded: attenuate contraction; also recorded: dose-dependent inhibition”; the “reversal of inhibition of contraction” value is “reversal by both 8SPT and ADA; also recorded: reversal of these inhibitions”.
